Reference: PubChem BioAssay (NCI)
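Results reflect a 48-hour exposure of cells in 96-well plates to compound at five concentrations. Here, GI50 denotes the concentration required for 50% inhibition of growth. The concentration for full growth arrest is given as TGI.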

Experiments:
Assay in all cases: growth of human tumour cells (NCI), 48 h
IGROV1 ovarian = test system: IGROV1 ovarian
HCT-15 colon = test system: HCT-15 colon
MCF7 breast = test system: MCF7 breast
SR leukemia = test system: SR leukemia
HOP-62 NSCLC = test system: HOP-62 NSCLC
OVCAR-3 ovarian = test system: OVCAR-3 ovarian
HCT-116 colon = test system: HCT-116 colon
MDA-MB-231 breast = test system: MDA-MB-231 breast
A498 renal = test system: A498 renal
CAKI-1 renal = test system: CAKI-1 renal

Compound | GI50 (IGROV1 ovarian) | TGI (IGROV1 ovarian) | GI50 (HCT-15 colon) | TGI (HCT-15 colon) | GI50 (MCF7 breast) | TGI (MCF7 breast) | GI50 (SR leukemia) | TGI (SR leukemia) | GI50 (HOP-62 NSCLC) | TGI (HOP-62 NSCLC) | GI50 (OVCAR-3 ovarian) | TGI (OVCAR-3 ovarian) | GI50 (HCT-116 colon) | TGI (HCT-116 colon) | GI50 (MDA-MB-231 breast) | TGI (MDA-MB-231 breast) | GI50 (A498 renal) | TGI (A498 renal) | GI50 (CAKI-1 renal) | TGI (CAKI-1 renal)
Cc1nc2ccccc2nc1N=Nc1ccccc1 | 9.58 µM | > 100 µM | 16.3 µM | > 100 µM | 5.75 µM | > 100 µM | 19 µM | > 100 µM | 28.5 µM | > 100 µM | 12.9 µM | 82.1 µM | 31.1 µM | > 100 µM | 16.2 µM | 69.1 µM | – | – | – | –
CC(=O)/C=C/c1ccc(OCc2ccc(Cl)cc2)cc1 | > 1000 µM | > 1000 µM | 498 µM | > 1000 µM | 644 µM | > 1000 µM | 564 µM | > 1000 µM | > 1000 µM | > 1000 µM | > 1000 µM | > 1000 µM | > 1000 µM | > 1000 µM | 629 µM | > 1000 µM | 254 µM | > 1000 µM | – | –
O=[N+]([O-])c1cc([N+](=O)[O-])c(Cl)cc1Cl | 1.17 µM | 2.74 µM | 1.35 µM | 3.73 µM | 1.67 µM | 4.23 µM | – | – | 1.68 µM | 3.27 µM | 1.42 µM | 2.73 µM | 0.661 µM | 2.17 µM | 1.94 µM | 3.7 µM | 1.61 µM | 4.51 µM | 0.188 µM | 0.352 µM
O=C1c2cccnc2C(=O)c2c1c(C(=O)OCCCN1CCCCC1)c1ccccn21 | 0.0309 µM | 0.686 µM | 0.01 µM | 0.422 µM | < 0.01 µM | < 0.015 µM | < 0.01 µM | > 100 µM | < 0.01 µM | 0.0203 µM | < 0.0218 µM | 0.156 µM | < 0.0106 µM | 0.275 µM | 0.717 µM | 13.9 µM | – | – | < 0.01 µM | 0.105 µM
CCCCOC1OC(COC(=O)C(C)C)C(OC(=O)C(C)C)C(O)C1OC1OC(C)C(OC(=O)CCC)C(OC(=O)C(C)C)C1O (stereo unspecified) | 22.7 µM | 58.5 µM | 14.2 µM | 27.3 µM | 8.4 µM | 61.6 µM | – | – | 14.3 µM | 27.4 µM | 11.9 µM | 24.2 µM | 6.41 µM | 18.4 µM | 10.1 µM | 21.7 µM | – | – | 17.4 µM | 31.1 µM
CC(C)(C)OC(=O)NCc1cccc(N=C=S)c1 | 19.3 µM | 41.8 µM | 16.6 µM | 36.5 µM | 16.6 µM | 42.4 µM | 20 µM | > 81.9 µM | 21.8 µM | 55.8 µM | 16.4 µM | 31.2 µM | 18 µM | 36 µM | 25.7 µM | > 85.7 µM | – | – | 20.5 µM | 53.9 µM
C=Cn1c([N+](=O)[O-])cnc1/C=C/c1ccc(C(=O)OCCN2CCOCC2)cc1 | – | > 100 µM | – | > 100 µM | – | > 100 µM | – | – | – | > 100 µM | – | > 100 µM | – | > 100 µM | – | > 100 µM | – | > 100 µM | – | > 100 µM
O=[N+]([O-])c1cc2no[n+]([O-])c2cc1N1CCCCC1 | – | 8.83 µM | – | 11.9 µM | – | – | – | 12.2 µM | – | 31.3 µM | – | – | – | 5.99 µM | – | 44.3 µM | – | 35.2 µM | – | 12.5 µM
CC1SC2(CCCCC2)N(NC(=O)c2[nH]c3ccc(Br)cc3c2-c2ccccc2)C1=O (stereo unspecified) | 4.02 µM | 28.4 µM | > 100 µM | > 100 µM | 20.5 µM | > 100 µM | – | – | 37 µM | > 100 µM | 3.24 µM | 20.9 µM | 10.2 µM | > 100 µM | 20.4 µM | 79.6 µM | > 100 µM | > 100 µM | 62.5 µM | > 100 µM
COc1c(N2CCN(CN3C(=O)C(=O)c4cc(Cl)ccc43)C(C)C2)c(F)cc2c(=O)c(C(=O)O)cn(C3CC3)c12 (stereo unspecified) | > 100 µM | > 100 µM | 31.7 µM | > 100 µM | 26.6 µM | > 100 µM | 4.51 µM | > 100 µM | – | – | 30 µM | > 100 µM | 29.8 µM | > 100 µM | 27.3 µM | > 100 µM | 11.9 µM | 80.9 µM | 24.7 µM | > 100 µM
O=C(O)c1c(Br)c(Br)c(Br)c(Br)c1C1c2ccc(O)cc2Oc2cc(O)ccc21 | – | > 100 µM | – | > 100 µM | – | > 100 µM | – | – | – | > 100 µM | – | > 100 µM | – | > 100 µM | – | > 100 µM | – | > 100 µM | – | > 100 µM
